The record followed here is patent publication US20260078103A1, “ISOQUINOLONES AS PI3K INHIBITORS” (OnKure, Inc., priority 2022, published 2026).

Each structure is given as a SMILES string.

One assay has as its system SKBR3 cells express WT PI3Ka. The experiment in a line: In vitro cell proliferation, SKBR3 cells (CellTiter-Glo). Format: cell-based. Particulars: Homo sapiens, SK-BR-3, 72 h, inhibition of proliferation. A digest of the protocol:
(§1)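 EC50 values derive from a four-parameter logistic fit of luminescence-based (CellTiter-Glo) inhibition, referenced to 0.1% DMSO and 10 uM Alpelisib controls. Compound exposure lasted 72 h at 37 °C.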
`Cc1cc([C@@H](C)Nc2ccccc2C(=O)O)c2cc(N3CCC(C)(O)CC3)n(C)c(=O)c2c1` [Example 260] yielded an EC50 of more than 15000 nM.

As to `Cc1cc([C@@H](C)Nc2ccccc2C(=O)O)c2cc(-c3cnc4ccoc4c3)n(C)c(=O)c2c1` [Example 265], the EC50 was more than 15000 nM.

Turning to `Cc1cc([C@@H](C)Nc2ccccc2C(=O)O)c2cc(-c3cnc(C(C)(C)F)c(F)c3)n(C)c(=O)c2c1` [Example 268], the EC50 is more than 15000 nM.

Compound `Cc1cc([C@@H](C)Nc2ccccc2C(=O)O)c2cc(-c3cnc4occc4c3)n(C)c(=O)c2c1` [Example 270] returned an EC50 of more than 15000 nM.

Compound `Cc1cc([C@@H](C)Nc2ccccc2C(=O)O)c2cc(-c3cnn(C(C)(C)C#N)c3)n(C)c(=O)c2c1` [Example 273] had an EC50 of more than 15000 nM.

With `Cc1cc([C@@H](C)Nc2cnsc2C(=O)O)c2cc(N3CCN(CC(F)(F)F)CC3)n(C)c(=O)c2c1` [Example 274], the EC50 is more than 15000 nM.

As to `Cc1cc([C@@H](C)Nc2ccccc2C(=O)O)c2cc(-c3cnc(C)cn3)n(C)c(=O)c2c1` [Example 275], the EC50 was more than 15000 nM.

Compound `Cc1cc([C@@H](C)Nc2ccccc2C(=O)O)c2cc(-c3cnc(C(C)C)nc3)n(C)c(=O)c2c1` [Example 276] returned an EC50 of more than 15000 nM.

`Cc1cc([C@@H](C)Nc2ccccc2C(=O)O)c2cc(-c3cnc(OC4CC4)c(F)c3)n(C)c(=O)c2c1` [Example 281] showed an EC50 of more than 15000 nM.

Staying with this assay, now noted: inhibition of proliferation, 72 hours.
Regarding `Cc1cc([C@@H](C)Nc2ccc(F)cc2C(=O)O)c2cc(N3CCN(CC(F)(F)F)CC3)n(C)c(=O)c2c1` [Example 259], the EC50 was more than 15000 nM.

In turn, `Cc1cc([C@@H](C)Nc2ccccc2C(=O)O)c2cc(N3CCN(CCC(F)(F)F)CC3)n(C)c(=O)c2c1` [Example 264] had an EC50 of more than 15000 nM.

Compound `Cc1cc([C@@H](C)Nc2ccc(F)cc2C(=O)O)c2cc(-c3cnc(C(C)(C)F)c(F)c3)n(C)c(=O)c2c1` [Example 269] showed an EC50 of 2000 to 15000 nM.

Consider `Cc1cc([C@@H](C)Nc2ccc(F)c(F)c2C(=O)O)c2cc(N3CCN(CC(F)(F)F)CC3)n(C)c(=O)c2c1` [Example 272], for which the EC50 was 2000 to 15000 nM.

In turn, `COC(C)(C)c1ncc(-c2cc3c([C@@H](C)Nc4ccccc4C(=O)O)cc(C)cc3c(=O)n2C)cc1F` [Example 277] came in with a half-maximal effective concentration (EC50) of 2000 to 15000 nM.

The subject of a further assay is phosphorylation of AKT (pAKT) in T47D cells expressing mutant PI3Ka (H1047R). Briefly: In vitro cell pAKT (Ser473) HTRF, T47D cells. Format: cell-based. The conditions noted are these: Homo sapiens, T47D, 6 h, cellular pAKT, T47D cells, mutant PI3Ka (H1047R), 6 hours; read-out: Avg T-47D IC50. A digest of the protocol:
(§2)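 Cells seeded on plates pre-stamped with 10-point compound dilutions, then grown 6 h at 37 °C (T47D in RPMI/10% FBS/insulin; SKBR3 in McCoy's 5a/10% FBS). Lysates read for pAKT Ser473 by HTRF after overnight antibody incubation. Inhibition normalised to 0.1% DMSO and 10 uM alpelisib; IC50 by four-parameter fit.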
Consider `Cc1cc([C@@H](C)Nc2ccccc2C(=O)O)c2cc(N3CCC(C)(O)CC3)n(C)c(=O)c2c1` [Example 260], for which the IC50 fell in the range of 2000 to 15000 nM.

`Cc1cc([C@@H](C)Nc2ccccc2C(=O)O)c2cc(-c3cnc4ccoc4c3)n(C)c(=O)c2c1` [Example 265]: the IC50 was 1 to 500 nM.

Turning to `Cc1cc([C@@H](C)Nc2ccccc2C(=O)O)c2cc(-c3cnc(C(C)(C)F)c(F)c3)n(C)c(=O)c2c1` [Example 268], the IC50 lay within 1 to 500 nM.

Turning to `Cc1cc([C@@H](C)Nc2ccccc2C(=O)O)c2cc(-c3cnc4occc4c3)n(C)c(=O)c2c1` [Example 270], the 50% inhibitory concentration (IC50) lay within 1 to 500 nM.

For the compound `Cc1cc([C@@H](C)Nc2ccccc2C(=O)O)c2cc(-c3cnn(C(C)(C)C#N)c3)n(C)c(=O)c2c1` [Example 273], the half-maximal inhibitory concentration (IC50) fell in the range of 1 to 500 nM.

As for `Cc1cc([C@@H](C)Nc2cnsc2C(=O)O)c2cc(N3CCN(CC(F)(F)F)CC3)n(C)c(=O)c2c1` [Example 274], the IC50 fell in the range of 2000 to 15000 nM.

Consider `Cc1cc([C@@H](C)Nc2ccccc2C(=O)O)c2cc(-c3cnc(C)cn3)n(C)c(=O)c2c1` [Example 275], for which the IC50 lay in the range of 1 to 500 nM.

As to `Cc1cc([C@@H](C)Nc2ccccc2C(=O)O)c2cc(-c3cnc(C(C)C)nc3)n(C)c(=O)c2c1` [Example 276], the IC50 lay within 1 to 500 nM.

As to `Cc1cc([C@@H](C)Nc2ccccc2C(=O)O)c2cc(-c3cnc(OC4CC4)c(F)c3)n(C)c(=O)c2c1` [Example 281], the IC50 was in the range of 1 to 500 nM.

The assay is the same for the next values; noted with them: cellular pAKT, T47D cells, mutant PI3Ka (H1047R), 6 hours; read-out: Avg T-47D IC50.
In the case of `Cc1cc([C@@H](C)Nc2ccc(F)cc2C(=O)O)c2cc(N3CCN(CC(F)(F)F)CC3)n(C)c(=O)c2c1` [Example 259], the IC50 is 1 to 500 nM.

`Cc1cc([C@@H](C)Nc2ccccc2C(=O)O)c2cc(N3CCN(CCC(F)(F)F)CC3)n(C)c(=O)c2c1` [Example 264]: the IC50 is 1 to 500 nM.

For `Cc1cc([C@@H](C)Nc2ccc(F)cc2C(=O)O)c2cc(-c3cnc(C(C)(C)F)c(F)c3)n(C)c(=O)c2c1` [Example 269], the IC50 was in the range of 1 to 500 nM.

Take `Cc1cc([C@@H](C)Nc2ccc(F)c(F)c2C(=O)O)c2cc(N3CCN(CC(F)(F)F)CC3)n(C)c(=O)c2c1` [Example 272]: the IC50 was 1 to 500 nM.

With `COC(C)(C)c1ncc(-c2cc3c([C@@H](C)Nc4ccccc4C(=O)O)cc(C)cc3c(=O)n2C)cc1F` [Example 277], the IC50 lay within 1 to 500 nM.

In the next assay the test system is T47D cells expressing mutant PI3Ka (H1047R). Briefly: In vitro cell proliferation, T47D cells (CellTiter-Glo). Type of assay: cell-based. The conditions noted are these: Homo sapiens, T47D, 72 h, inhibition of proliferation, read-out: Avg T-47D EC50. A digest of the protocol:
as §1
As to `Cc1cc([C@@H](C)Nc2ccccc2C(=O)O)c2cc(N3CCC(C)(O)CC3)n(C)c(=O)c2c1` [Example 260], the concentration giving a half-maximal response (EC50) was in the range of 500 to 2000 nM.

In the case of `Cc1cc([C@@H](C)Nc2ccccc2C(=O)O)c2cc(-c3cnc4ccoc4c3)n(C)c(=O)c2c1` [Example 265], the EC50 lay within 1 to 500 nM.

With `Cc1cc([C@@H](C)Nc2ccccc2C(=O)O)c2cc(-c3cnc(C(C)(C)F)c(F)c3)n(C)c(=O)c2c1` [Example 268], the EC50 lay in the range of 1 to 500 nM.

Consider `Cc1cc([C@@H](C)Nc2ccccc2C(=O)O)c2cc(-c3cnc4occc4c3)n(C)c(=O)c2c1` [Example 270], for which the EC50 was in the range of 500 to 2000 nM.

Take `Cc1cc([C@@H](C)Nc2ccccc2C(=O)O)c2cc(-c3cnn(C(C)(C)C#N)c3)n(C)c(=O)c2c1` [Example 273]: the EC50 fell in the range of 500 to 2000 nM.

For the compound `Cc1cc([C@@H](C)Nc2cnsc2C(=O)O)c2cc(N3CCN(CC(F)(F)F)CC3)n(C)c(=O)c2c1` [Example 274], the EC50 fell in the range of 2000 to 15000 nM.

Turning to `Cc1cc([C@@H](C)Nc2ccccc2C(=O)O)c2cc(-c3cnc(C)cn3)n(C)c(=O)c2c1` [Example 275], the 50% effective concentration (EC50) lay in the range of 1 to 500 nM.

In the case of `Cc1cc([C@@H](C)Nc2ccccc2C(=O)O)c2cc(-c3cnc(C(C)C)nc3)n(C)c(=O)c2c1` [Example 276], the EC50 lay in the range of 1 to 500 nM.

For the compound `Cc1cc([C@@H](C)Nc2ccccc2C(=O)O)c2cc(-c3cnc(OC4CC4)c(F)c3)n(C)c(=O)c2c1` [Example 281], the concentration giving a half-maximal response (EC50) was in the range of 1 to 500 nM.

The same assay, now with this note: inhibition of proliferation, 72 hours, read-out: Avg T-47D EC50.
Consider `Cc1cc([C@@H](C)Nc2ccc(F)cc2C(=O)O)c2cc(N3CCN(CC(F)(F)F)CC3)n(C)c(=O)c2c1` [Example 259], for which the EC50 lay within 1 to 500 nM.

`Cc1cc([C@@H](C)Nc2ccccc2C(=O)O)c2cc(N3CCN(CCC(F)(F)F)CC3)n(C)c(=O)c2c1` [Example 264]: the EC50 lay within 1 to 500 nM.

In the case of `Cc1cc([C@@H](C)Nc2ccc(F)cc2C(=O)O)c2cc(-c3cnc(C(C)(C)F)c(F)c3)n(C)c(=O)c2c1` [Example 269], the EC50 fell in the range of 1 to 500 nM.

With `Cc1cc([C@@H](C)Nc2ccc(F)c(F)c2C(=O)O)c2cc(N3CCN(CC(F)(F)F)CC3)n(C)c(=O)c2c1` [Example 272], the EC50 lay in the range of 1 to 500 nM.

For `COC(C)(C)c1ncc(-c2cc3c([C@@H](C)Nc4ccccc4C(=O)O)cc(C)cc3c(=O)n2C)cc1F` [Example 277], the EC50 is 1 to 500 nM.

The test system of the next assay is phosphorylation of AKT (pAKT) in SKBR3 cells express WT PI3Ka. Briefly: In vitro cell pAKT (Ser473) HTRF, SKBR3 cells. Particulars: Homo sapiens, SK-BR-3, 6 h, cellular pAKT. Format: cell-based. In outline:
as §2
Compound `Cc1cc([C@@H](C)Nc2ccccc2C(=O)O)c2cc(N3CCC(C)(O)CC3)n(C)c(=O)c2c1` [Example 260] gave a 50% inhibitory concentration (IC50) of more than 15000 nM.

`Cc1cc([C@@H](C)Nc2ccccc2C(=O)O)c2cc(-c3cnc4ccoc4c3)n(C)c(=O)c2c1` [Example 265] yielded an IC50 of more than 15000 nM.

In turn, `Cc1cc([C@@H](C)Nc2ccccc2C(=O)O)c2cc(-c3cnc(C(C)(C)F)c(F)c3)n(C)c(=O)c2c1` [Example 268] came in with an IC50 of more than 15000 nM.

For `Cc1cc([C@@H](C)Nc2ccccc2C(=O)O)c2cc(-c3cnc4occc4c3)n(C)c(=O)c2c1` [Example 270], the IC50 was more than 15000 nM.

`Cc1cc([C@@H](C)Nc2ccccc2C(=O)O)c2cc(-c3cnn(C(C)(C)C#N)c3)n(C)c(=O)c2c1` [Example 273] came in with an IC50 of more than 15000 nM.

In the case of `Cc1cc([C@@H](C)Nc2cnsc2C(=O)O)c2cc(N3CCN(CC(F)(F)F)CC3)n(C)c(=O)c2c1` [Example 274], the IC50 was more than 15000 nM.

For the compound `Cc1cc([C@@H](C)Nc2ccccc2C(=O)O)c2cc(-c3cnc(C)cn3)n(C)c(=O)c2c1` [Example 275], the IC50 is more than 15000 nM.

`Cc1cc([C@@H](C)Nc2ccccc2C(=O)O)c2cc(-c3cnc(C(C)C)nc3)n(C)c(=O)c2c1` [Example 276]: the IC50 was more than 15000 nM.

Take `Cc1cc([C@@H](C)Nc2ccccc2C(=O)O)c2cc(-c3cnc(OC4CC4)c(F)c3)n(C)c(=O)c2c1` [Example 281]: the IC50 was more than 15000 nM.

Staying with this assay, now noted: cellular pAKT, 6 hours.
Regarding `Cc1cc([C@@H](C)Nc2ccc(F)cc2C(=O)O)c2cc(N3CCN(CC(F)(F)F)CC3)n(C)c(=O)c2c1` [Example 259], the IC50 was in the range of 2000 to 15000 nM.

Compound `Cc1cc([C@@H](C)Nc2ccccc2C(=O)O)c2cc(N3CCN(CCC(F)(F)F)CC3)n(C)c(=O)c2c1` [Example 264] had an IC50 of more than 15000 nM.

In turn, `Cc1cc([C@@H](C)Nc2ccc(F)cc2C(=O)O)c2cc(-c3cnc(C(C)(C)F)c(F)c3)n(C)c(=O)c2c1` [Example 269] returned an IC50 of 2000 to 15000 nM.

In the case of `Cc1cc([C@@H](C)Nc2ccc(F)c(F)c2C(=O)O)c2cc(N3CCN(CC(F)(F)F)CC3)n(C)c(=O)c2c1` [Example 272], the half-maximal inhibitory concentration (IC50) was in the range of 2000 to 15000 nM.

As to `COC(C)(C)c1ncc(-c2cc3c([C@@H](C)Nc4ccccc4C(=O)O)cc(C)cc3c(=O)n2C)cc1F` [Example 277], the IC50 is 2000 to 15000 nM.
